Measurements: patent US12239620B2, “Methods to decrease triglyceride synthesis in the liver” (MediciNova, Inc., priority 2021, dated 2025)

Key:
Assay type in all cases: cell-based, human
[1] = system: ABCG1; experiment: ABCG1 mRNA expression in HepG2 cells by qPCR; details: 48 hours, 10 μM MN-001, 10 μM ARA
Description: FIG. 3 depicts the measurement of ABCG1 mRNA expression levels from HepG2 cells after treatment with one or more selected from arachidonic acid, T0901317, and MN-001. Y-axis: relative mRNA expression (arbitrary units) compared to a control.
(§1) The effect of MN-001 on the mRNA expression of molecules related to TG metabolism: (1) fatty acid translocase/CD36, which is involved in the uptake of ARA into hepatocytes in the liver, and (2) ABCG1, which plays a role in controlling tissue lipid levels by mediating transfer of cellular cholesterol to HDL, were also investigated by measuring extracted RNA from HepG2 cells and using real-time PCR. To this end, RNA was extracted from HepG2 cells (after treatment with one or more selected from 10 μM arachidonic acid (ARA), 1 μM T1317, and 10 μM MN-001 for 48 hours) and converted to cDNA.
In addition, the ABCG1 mRNA expression levels were also measured by qPCR (FIG. 3). ABCG1 is known to be highly expressed in lipid-loaded macrophages and mediates cholesterol efflux to HDL. ABCG1 deficiency leads to profound intracellular cholesterol accumulation in macrophages and hepatocytes.

[2] = system: CD36; experiment: CD36 mRNA expression in HepG2 cells by qPCR; details: 48 hours
Description: FIG. 2 depicts the measurement of CD36 mRNA expression levels from HepG2 cells after treatment with one or more selected from arachidonic acid, T0901317, and MN-001. Y-axis: relative mRNA expression (arbitrary units) compared to a control.
as §1
After conversion to cDNA, the CD36 mRNA expression levels were measured by qPCR (FIG. 2). […] Saturated fatty acids (e.g., palmitic acid, stearic acid) and fructose induce adipogenic pathways and promote fat accumulation by increasing CD36 expression and modulating ChREBP, which regulates lipogenesis.

[3] = system: HepG2 cells; experiment: Intracellular triglyceride level in HepG2 cells after 48 hours incubation; details: for increase in TG synthesis compared to vehicle: 10 μM ARA, 1 μM T1317
Experimental: FIG. 1 depicts the measurement of intracellular triglyceride level in HepG2 cells after 48 hours incubation with one or more selected from arachidonic acid, T0901317, and MN-001. Y-axis: Δ intracellular triglycerides (μg/mg/protein). HepG2 cells (derived from human hepatocellular carcinoma samples) were incubated with one or more selected from 10 μM arachidonic acid (ARA), 1 μM LXR agonist T0901317 (“T1317”), and 10 μM MN-001 for 48 hours. T1317 stimulates LXR-SREBP-1c ChREPB signal, increases triglyceride (TG) synthesis in liver and exacerbates fatty liver. The intracellular triglyceride level was measured after the treatment (FIG. 1).

[4] = 10 μM MN-001 added to 10 μM ARA

## CCCc1c(SCCCOc2ccc(C(C)=O)c(OCCCC(=O)O)c2CCC)ccc(C(C)=O)c1O [MN-001]
[1]
  upregulation of ABCG1 expression compared to control: 17 fold
[2]; 10 μM MN-001, in the absence of ARA
  lowering of CD36 expression: 39%
[2]; 10 μM MN-001, in the presence of ARA (10 μM)
  lowering of CD36 expression: 43%
[2]; [4]
  suppression of CD36 expression compared to ARA alone: 0.6 fold
[2]; 10 μM MN-001 alone
  downregulation of CD36 expression compared to control: 0.6 fold
[3]; 10 μM MN-001 added to 1 μM T1317
  suppression of the increase in TG synthesis by T1317: 1.7 fold
[3]; 10 μM MN-001 added to 1 μM T1317 and 10 μM ARA
  suppression of the increase in TG synthesis by a combination of T1317 and ARA: 3.7 fold
[3]; [4]
  suppression of the increase in TG synthesis by ARA: 3.7 fold

## CCCCC/C=C\C/C=C\C/C=C\C/C=C\CCCC(=O)O [ARA, arachidonic acid, reference compound]
[2]; 10 μM ARA
  increase of CD36 expression compared to control: 1.8 fold
[3]
  increase in TG synthesis compared to vehicle: 15.3 fold

## O=S(=O)(c1ccccc1)N(CC(F)(F)F)c1ccc(C(O)(C(F)(F)F)C(F)(F)F)cc1 [T1317, reference compound]
[3]
  increase in TG synthesis compared to vehicle: 3.8 fold
